In assay [1] the target is T1, ELIC (Erwinia chrysanthemi ligand-gated ion channel) (Dickeya chrysanthemi, UniProt P0C7B7).
T1 sequence (P0C7B7 1-321): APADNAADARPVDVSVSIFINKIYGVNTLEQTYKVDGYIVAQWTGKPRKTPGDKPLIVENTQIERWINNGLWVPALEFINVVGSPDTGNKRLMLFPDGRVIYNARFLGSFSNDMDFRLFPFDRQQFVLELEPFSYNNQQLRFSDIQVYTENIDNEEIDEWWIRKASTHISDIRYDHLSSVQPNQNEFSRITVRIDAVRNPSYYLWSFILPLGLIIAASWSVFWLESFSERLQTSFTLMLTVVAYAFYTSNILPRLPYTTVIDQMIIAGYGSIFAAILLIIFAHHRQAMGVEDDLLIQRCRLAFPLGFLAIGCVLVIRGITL
The experiment in a line: two-electrode voltage clamp, Xenopus oocytes. The assay is classed as cell-based. As to conditions: agonist; pH 7.4, 18 °C, -60 mV; concentration used as EC20. A general note: Two-electrode voltage clamp is typically applied to oocytes expressing channels or transporters.

In assay [2] the target is ELIC (Erwinia chrysanthemi ligand-gated ion channel) (Dickeya chrysanthemi, UniProt P0C7B7, L239S/W223A). The experiment in a line: cell-based. The following applies: read-out: remaining EC20 current (%) at 200 μM.
Assay [3] addresses ELIC (Erwinia chrysanthemi ligand-gated ion channel) (Dickeya chrysanthemi, UniProt P0C7B7, F273A/L239S). The experiment in a line: cell-based. As to conditions: read-out: remaining EC20 current (%) at 200 μM.
The target in assay [4] is T1, ELIC (Erwinia chrysanthemi ligand-gated ion channel). The experiment in a line: two-electrode voltage clamp, Xenopus oocytes. It is filed as cell-based.

As a reminder, the EC20 is the point of the concentration-response curve where the effect stands at 20%. Low values mean greater potency, high ones weaker potency. Broadly, the IC50 is the point on the concentration scale where inhibition reaches its midpoint.

In assay [1], `NCCCC(=O)O` [GABA] came in with an EC20 of 3000 µM. Take `BrC(Br)Br` [bromoform]: the remaining activity at 200 µM stood at 81 ± 6% in assay [2] and 78 ± 4% in assay [3]. Moreover, in assay [4], the half-inhibitory concentration (IC50) was 125 ± 10 µM. In turn, `ClC(Cl)Cl` [chloroform] showed an IC50 in assay [4] of 162 ± 26 µM.
